± gives the expanded uncertainty stated by the source.
How the values were obtained:
[1] = 101.33 kPa, Liquid; for mass density: Pycnometric method; for speed of sound: multifrequency ultrasonic interferometer
[2] = xn = mol fraction of the nth substance listed; details: 101 kPa, Liquid; for mass density: Pycnometric method; for speed of sound: multifrequency ultrasonic interferometer

CO [methanol]
[1]
Details	mass density [kg/m3]	speed of sound [m/s]
298.15 K	786.74 ± 0.24	1100.7 ± 0.2
308.15 K	777.45 ± 0.26	1068.2 ± 0.2
318.15 K	768.01 ± 0.29	1037 ± 0.2

CN(C)CCO [2-(N,N-dimethylamino)ethanol] + CO
[2]
Details	mass density, 298.15 K [kg/m3]	mass density, 308.15 K [kg/m3]	mass density, 318.15 K [kg/m3]	speed of sound, 298.15 K [m/s]	speed of sound, 308.15 K [m/s]	speed of sound, 318.15 K [m/s]
x1 = 0.0971	814.11 ± 0.26	806.11 ± 0.28	797.9 ± 0.31	1152.4 ± 0.5	1126.7 ± 0.5	1101.6 ± 0.5
x1 = 0.1983	835.29 ± 0.27	827.54 ± 0.3	819.51 ± 0.32	1204.7 ± 0.5	1180.5 ± 0.5	1156.2 ± 0.5
x1 = 0.2962	850.65 ± 0.28	842.65 ± 0.31	834.22 ± 0.34	1249.8 ± 0.6	1225.3 ± 0.6	1199.5 ± 0.6
x1 = 0.4039	862.04 ± 0.3	853.81 ± 0.32	845.26 ± 0.35	1290.2 ± 0.6	1265.5 ± 0.6	1238.9 ± 0.6
x1 = 0.502	868.4 ± 0.31	860.4 ± 0.34	852.01 ± 0.36	1312 ± 0.6	1288.1 ± 0.6	1261.3 ± 0.6
x1 = 0.607	873.13 ± 0.33	865.13 ± 0.35	856.89 ± 0.38	1322.4 ± 0.7	1299.3 ± 0.7	1272.9 ± 0.7
x1 = 0.7075	876.61 ± 0.34	868.67 ± 0.37	860.58 ± 0.39	1326.9 ± 0.7	1301.3 ± 0.7	1273.6 ± 0.7
x1 = 0.7999	879.06 ± 0.36	871.15 ± 0.38	862.98 ± 0.41	1330.6 ± 0.8	1303.1 ± 0.8	1273.9 ± 0.8
x1 = 0.9015	881.19 ± 0.38	873.28 ± 0.4	865.23 ± 0.43	1335 ± 0.8	1304.2 ± 0.8	1274 ± 0.8
x1 = 1	883.34 ± 0.4	874.99 ± 0.42	866.37 ± 0.44	1344.4 ± 0.9	1309.1 ± 0.9	1274.1 ± 0.9

CO [methanol] + CN(C)CCO
[2], x2 = 0
Details	mass density [kg/m3]	speed of sound [m/s]
298.15 K	786.74 ± 0.24	1100.7 ± 0.5
308.15 K	777.45 ± 0.26	1068.2 ± 0.5
318.15 K	768.01 ± 0.29	1037 ± 0.5

CN(C)CCO [2-(N,N-dimethylamino)ethanol] + CCO
[2]
Details	mass density, 298.15 K [kg/m3]	mass density, 308.15 K [kg/m3]	mass density, 318.15 K [kg/m3]	speed of sound, 298.15 K [m/s]	speed of sound, 308.15 K [m/s]	speed of sound, 318.15 K [m/s]
x1 = 0.0929	803.31 ± 0.24	795.34 ± 0.27	787.23 ± 0.3	1172.7 ± 0.4	1141.5 ± 0.4	1109.4 ± 0.4
x1 = 0.1972	820.2 ± 0.26	812.45 ± 0.28	804.46 ± 0.31	1206.4 ± 0.5	1176.1 ± 0.5	1144.1 ± 0.5
x1 = 0.3005	834.5 ± 0.27	826.62 ± 0.29	818.61 ± 0.32	1236.8 ± 0.5	1207.1 ± 0.5	1176.3 ± 0.5
x1 = 0.4012	846.38 ± 0.28	838.41 ± 0.31	830.22 ± 0.33	1264.9 ± 0.6	1234.4 ± 0.6	1205.1 ± 0.6
x1 = 0.5051	856.62 ± 0.3	848.64 ± 0.32	840.29 ± 0.35	1290.4 ± 0.6	1259.8 ± 0.6	1231.3 ± 0.6
x1 = 0.6098	864.64 ± 0.31	856.77 ± 0.34	848.47 ± 0.37	1309.3 ± 0.7	1279.1 ± 0.7	1251 ± 0.7
x1 = 0.7086	871.01 ± 0.33	863.28 ± 0.36	854.97 ± 0.38	1321 ± 0.7	1292 ± 0.7	1264.2 ± 0.7
x1 = 0.8031	875.81 ± 0.35	868.08 ± 0.38	859.92 ± 0.4	1329.8 ± 0.8	1300.4 ± 0.8	1271.8 ± 0.8
x1 = 0.9036	879.78 ± 0.37	871.92 ± 0.4	863.76 ± 0.42	1336.4 ± 0.8	1304.5 ± 0.8	1273.3 ± 0.8
x1 = 1	883.34 ± 0.4	874.99 ± 0.42	866.37 ± 0.44	1344.4 ± 0.9	1309.1 ± 0.9	1274.1 ± 0.9

CN(C)CCO [2-(N,N-dimethylamino)ethanol]
[1]
Details	mass density [kg/m3]	speed of sound [m/s]
298.15 K	883.34 ± 0.4	1344.4 ± 0.8
308.15 K	874.99 ± 0.42	1309.1 ± 0.8
318.15 K	866.37 ± 0.44	1274.1 ± 0.8

CCO [ethanol]
[1]
Details	mass density [kg/m3]	speed of sound [m/s]
298.15 K	785.48 ± 0.23	1143.2 ± 0.1
308.15 K	776.82 ± 0.26	1109.6 ± 0.1
318.15 K	768.08 ± 0.29	1075.5 ± 0.1

CCO [ethanol] + CN(C)CCO
[2], x2 = 0
Details	mass density [kg/m3]	speed of sound [m/s]
298.15 K	785.48 ± 0.23	1143.2 ± 0.4
308.15 K	776.82 ± 0.26	1109.6 ± 0.4
318.15 K	768.08 ± 0.29	1075.5 ± 0.4

— the NIST ThermoML archive (doi:10.1016/j.tca.2014.03.038)
